Results from patent US20060084597A2, “USE OF COMPOUNDS HAVING GIP ACTIVITY FOR THE TREATMENT OF DISORDERS ASSOCIATED WITH ABNORMAL LOSS OF CELLS AND/OR FOR THE TREATMENT OF OBESITY” (Eisai Co., Ltd., priority 2002, published 2006).

How the values were obtained:
[1] = system: adult hippocampal progenitor cells; test: CyQUANT cell proliferation assay (DNA content); format: cell-based, rat; conditions: for cells in a well at the end of the experiment: around 6 x 10^3 cells seeded, control well without FGF around 1.5 x 10^5
Procedure: Proliferation assay. Hippocampal progenitor cells were seeded at 0.2 x 10^4 cells/cm^2 on 24-well plates in culture medium containing human FGF-2 (20ng/ml) and left to grow for 48 h. After a further 48 h of growth without FGF-2, cells were incubated with porcine GIP at different concentrations (Sigma), FGF-2 alone or a combination of both GIP (1 nM) and FGF-2 for 48 h. Cell proliferation assay was performed using the CyQUANT Cell Proliferation Kit (Molecular Probes, Eugene, OR) and a GENios microplate reader (TECAN Austria GmbH, Grödig, Austria) according to the instructions of the manufacturer.

[2] = system: hippocampal progenitor cells in adult rat DG; test: Intracerebroventricular GIP infusion, BrdU-positive cell count in granule cell layer of dentate gyrus; format: in vivo; conditions: adult male SD rats, i.c.v. 1.92 nmol/day for 5 days
Procedure: Intracerebroventricular GIP infusion. Adult male SD rats (260-280 g; B&K Universal, Sweden) were intubated and ventilated with isoflurane in an O2/N2O mix (30:70). An infusion cannula connected to an osmotic pump (Alzet brain infusion kit II and Alzet 2001 osmotic pump, Alza Scientific Products, Palo Alto, CA) was placed in the 3rd cerebral ventricle (0.3 mm posterior from Bregma along the midline, 5 mm below skull surface). Each rat was infused (1 µl/hr) for 5 days with either GIP (1.92 nmol/day; n = 5) or vehicle (0.1 M PBS; n = 6) and sacrificed the last day. All animals received a single daily intraperitoneal injection of Bromodeoxyuridine (BrdU; 50 mg/kg of body weight; Boehringer Mannheim; Scandinavia AB, Bromma, Sweden).
Immunohistochemistry and cellcounting. Brains were sectioned and stained for BrdU using a primary mouse BrdU antibody (1:400, Boeringer Mannheim) and biotinylated horse anti-mouse IgG (1:125) secondary antibodies (Vector Laboratories, Burlingame, CA) as previously described^11. For each animal, the total number of BrdU-positive cells in the granule cell layer, including the subgranular layer, and their corresponding sample volume were determined in 12 immunoperoxidase-stained, 40-µm-thick coronal sections taken 240 µm apart. […] Results are expressed as BrdU-positive cells per sample volume.
Statistics. […] All values are expressed as the means ± SEM.

[3] = Effect on weight gain after intraventricular infusion in the brain; format: in vivo, rat; conditions: male Sprague-Dawley rats, 1.92 nmol/day intraventricularly, 5 days
Procedure: Rats (male Sprague-Dawley) were given either GIP (6 rats, 1.92 nmol/day) or phosphate buffered saline (PBS) as control-solution (7 rats), intraventricularly in the brain by osmotic mini-pumps. The rats were given substance during five days, and then sacrificed.
The weight of each rat was recorded and the total weight gain during the five days calculated.

[4] = system: adult hippocampal progenitor cells; test: LDH release from dying cells; format: cell-based, rat; conditions: GIP 1 nM or FGF-2 20 ng/ml
Procedure: LDH-activity. Release of lactate dehydrogenase (LDH) from dying cells was measured using a routine photometric method (Dept. of Clinical Chemistry, Sahlgrenska University Hospital, Sweden). Cell culture medium was collected from culture wells seeded for the Apop Tag staining (see above). . The mean for each experiment was calculated from three different culture wells and each experiment was performed 4 times. The coefficient of variation for the assay was 1.7 % and the assay standard curve was linear for enzyme activities between 0.1–20 µkat/ dm^3.

[5] = system: adult hippocampal progenitor cells; test: methyl-[3H]-thymidine incorporation assay; format: cell-based, rat; conditions: 24 h, n = 12
Procedure: Thymidin-assay. Hippocampal progenitor cells were seeded at 0.5 x 10^4 cells/cm^2 on 48-well plates in culture medium and left to grow for 48 h. The cells were then labeled with methyl-[^3H]-thymidine and incubated with GIP (1 nM) or FGF-2 (20ng/ml) for 24 h. Cells were lysed in 0.4 M NaOH, transferred to scint vials, mixed with 0.4 M HCl and assayed for DNA synthesis by scintillation spectrometry. The mean for each experiment was calculated from four different culture wells and each experiment was performed 12 times.

[6] = system: adult hippocampal progenitor cells; test: Apop-Tag staining for apoptotic or dead cells; format: cell-based, rat; conditions: control 3.31 + 0.67%
Procedure: Apop-Tag. Hippocampal progenitor cells were seeded at 1 x 10^4 cells/cm^2 on glass coverslips and treated the same way as for the proliferation assay and incubated with GIP (1 nM) or FGF-2 (20 ng/ml). Cells were fixed and stained for apoptosis according to the Apop Tag kit user manual (Apop Tag S160 direct, Intergene Company, Purchase, NY, USA). A negative control without TdT-enzyme was included and positive controls with addition of H2O2 (100 µM and 1 mM) and DNase I (1 µg/ml) was included. In the last washing step the cells were incubated with the nuclear dye bisBenzimide (Hoechst 33258, Sigma) for 30 min. Apoptotic or dead cells were identified by green fluorescence in the nuclei and Hoechst nuclear dye was used to discriminate total number of cells. Three coverslips per experiment was stained from four different experiments. Positive cells was quantified by scoring the immunoreactivity of 1000–3000 cells systematically observed in 6 nonoverlapping fields in each coverslip.

| Substance | proliferative effect ([1]; GIP 0.1 pM, 48 h) | proliferative effect compared with FGF-2 ([1]; GIP 1 nM vs FGF-2 20 ng/ml) | increase in cell proliferation relative to control ([1]; GIP 1 nM, 48 h, n = 8) | rate of cell proliferation, dose-dependent ([1]; GIP doses from 1 pM to 0.1 µM, 48 h) | cells in a well at the end of the experiment [1] | number of BrdU+ cells in the granule cell layer ([2]; n = 5, PBS 14986 ± 1831) | increase in BrdU-positive cells versus PBS-treated animals ([2]; p < 0.05) | weight gain as % of the weight gain seen in the PBS treated rats [3] | total weight gain during the five days ([3]; PBS 28.5g) | extracellular level of released LDH compared with controls [4] | increase in thymidin incorporation compared to control ([5]; GIP 1 nM) | cell death compared with control ([6]; GIP 1 nM) | increase in cell proliferation relative to control ([1]; FGF-2 20 ng/ml alone, 48 h, n = 4) | increase in thymidin incorporation compared to control ([5]; FGF-2 20 ng/ml) | cell death ([6]; FGF-2 20 ng/ml) |
| --- | --- | --- | --- | --- | --- | --- | --- | --- | --- | --- | --- | --- | --- | --- | --- |
| GIP: 42 amino acid gastric inhibitory polypeptide; porcine GIP (Sigma) used in the cell assays (YAEGTFISDYSIAMDKIRQQDFVNWLLAQKGKKSDWKHNITQ; Gastric inhibitory polypeptide synthetic; UniProt P01281 1-42, looked up) | absent | slightly more than half | 74.5 ± 14.4% | significant increases | ~2.5 x 10^5 cells | 27969 ± 5795 cells/mm^3 | 86% | 63% | 17.9 g | no statistical difference | 32.4 ± 3.3% | not statistically different |  |  |  |
| FGF-2: human fibroblast growth factor-2, a well-documented proliferative agent of these cells [reference compound] |  |  |  |  | ~3 x 10^5 cells |  |  |  |  | no statistical difference |  |  | 112.3 ± 20% | 60.1 ± 7.1% | 0.96 + 0.21% |
